Numbers after ± are expanded uncertainties.
Columns and labels:
[1] = xn = mol fraction of the nth substance listed; settings: 101 kPa, Liquid
[2] = relative permittivity at zero frequency (dimensionless); xn = mol fraction of the nth substance listed; settings: 101 kPa, Liquid, Parallel plate capacitor
[3] = 101 kPa, Liquid
[4] = relative permittivity at zero frequency (dimensionless); settings: 101 kPa, Liquid, Parallel plate capacitor

CCCOCCO [2-propoxyethanol] + OCCOCCO
Settings	mass density, 293.15 K [kg/m3]	mass density, 298.15 K [kg/m3]	mass density, 303.15 K [kg/m3]	relative permittivity at zero frequency, 293.15 K	relative permittivity at zero frequency, 298.15 K	relative permittivity at zero frequency, 303.15 K
[1], x1 = 0.0436	1106.38 ± 1.7	1102.72 ± 1.7	1098.89 ± 1.8	–	–	–
[1], x1 = 0.1	1093.5 ± 1.6	1089.56 ± 1.7	1085.52 ± 1.8	–	–	–
[1], x1 = 0.2007	1071 ± 1.6	1066.79 ± 1.7	1062.47 ± 1.7	–	–	–
[1], x1 = 0.2997	1049.58 ± 1.6	1045.22 ± 1.6	1040.76 ± 1.7	–	–	–
[1], x1 = 0.3999	1028.62 ± 1.6	1024.11 ± 1.6	1019.56 ± 1.7	–	–	–
[1], x1 = 0.4968	1008.87 ± 1.5	1004.21 ± 1.6	999.53 ± 1.6	–	–	–
[1], x1 = 0.6002	988.3 ± 1.5	983.48 ± 1.6	978.63 ± 1.6	–	–	–
[1], x1 = 0.6985	969.23 ± 1.5	964.21 ± 1.5	959.16 ± 1.6	–	–	–
[1], x1 = 0.7998	950.04 ± 1.4	944.82 ± 1.5	939.65 ± 1.6	–	–	–
[1], x1 = 0.8992	931.65 ± 1.4	926.35 ± 1.5	921.14 ± 1.5	–	–	–
[1], x1 = 0.9499	922.4 ± 1.4	917.14 ± 1.5	911.97 ± 1.5	–	–	–
[1], x1 = 1	913.31 ± 1.4	908.19 ± 1.5	903.11 ± 1.5	–	–	–
[2], x1 = 0.0435	–	–	–	31.3 ± 0.04	30.42 ± 0.04	29.5 ± 0.04
[2], x1 = 0.0998	–	–	–	30.58 ± 0.04	29.69 ± 0.04	28.76 ± 0.04
[2], x1 = 0.197	–	–	–	29.18 ± 0.04	28.31 ± 0.04	27.4 ± 0.04
[2], x1 = 0.2962	–	–	–	27.57 ± 0.04	26.74 ± 0.04	25.88 ± 0.04
[2], x1 = 0.3996	–	–	–	25.72 ± 0.04	24.95 ± 0.04	24.14 ± 0.04
[2], x1 = 0.4964	–	–	–	23.82 ± 0.04	23.13 ± 0.04	22.39 ± 0.04
[2], x1 = 0.5955	–	–	–	21.73 ± 0.04	21.13 ± 0.04	20.46 ± 0.04
[2], x1 = 0.6996	–	–	–	19.43 ± 0.04	18.88 ± 0.04	18.29 ± 0.04
[2], x1 = 0.8001	–	–	–	17.06 ± 0.04	16.58 ± 0.04	16.06 ± 0.04
[2], x1 = 0.8999	–	–	–	14.55 ± 0.04	14.13 ± 0.04	13.7 ± 0.04
[2], x1 = 0.9499	–	–	–	13.2 ± 0.04	12.83 ± 0.04	12.46 ± 0.04
[2], x1 = 1	–	–	–	11.76 ± 0.04	11.5 ± 0.04	11.19 ± 0.04

OCCOCCOCCO [triethylene glycol] + CCCOCCO
x2 = 0
Settings	mass density, 293.15 K [kg/m3]	mass density, 298.15 K [kg/m3]	mass density, 303.15 K [kg/m3]	relative permittivity at zero frequency, 293.15 K	relative permittivity at zero frequency, 298.15 K	relative permittivity at zero frequency, 303.15 K
[1]	1123.74 ± 1.9	1119.66 ± 1.9	1115.83 ± 2	–	–	–
[2]	–	–	–	23.69 ± 0.04	23.07 ± 0.04	22.43 ± 0.04

OCCOCCO [diethylene glycol]
Settings	mass density, 293.15 K [kg/m3]	mass density, 298.15 K [kg/m3]	mass density, 303.15 K [kg/m3]	relative permittivity at zero frequency, 293.15 K	relative permittivity at zero frequency, 298.15 K	relative permittivity at zero frequency, 303.15 K
[3]	1116.38 ± 1.7	1113.03 ± 1.7	1109.47 ± 1.8	–	–	–
[4]	–	–	–	31.81 ± 0.04	30.95 ± 0.04	30.03 ± 0.04

OCCOCCO [diethylene glycol] + CCCOCCO
x2 = 0
Settings	mass density, 293.15 K [kg/m3]	mass density, 298.15 K [kg/m3]	mass density, 303.15 K [kg/m3]	relative permittivity at zero frequency, 293.15 K	relative permittivity at zero frequency, 298.15 K	relative permittivity at zero frequency, 303.15 K
[1]	1116.38 ± 1.7	1113.03 ± 1.7	1109.47 ± 1.8	–	–	–
[2]	–	–	–	31.81 ± 0.04	30.95 ± 0.04	30.03 ± 0.04

OCCOCCOCCO [triethylene glycol]
Settings	mass density, 293.15 K [kg/m3]	mass density, 298.15 K [kg/m3]	mass density, 303.15 K [kg/m3]	relative permittivity at zero frequency, 293.15 K	relative permittivity at zero frequency, 298.15 K	relative permittivity at zero frequency, 303.15 K
[3]	1123.74 ± 1.9	1119.66 ± 1.9	1115.83 ± 2	–	–	–
[4]	–	–	–	23.69 ± 0.04	23.07 ± 0.04	22.43 ± 0.04

CCCOCCO [2-propoxyethanol] + OCCOCCOCCOCCO
Settings	mass density, 293.15 K [kg/m3]	mass density, 298.15 K [kg/m3]	mass density, 303.15 K [kg/m3]	relative permittivity at zero frequency, 293.15 K	relative permittivity at zero frequency, 298.15 K	relative permittivity at zero frequency, 303.15 K
[1], x1 = 0.05	1116.81 ± 1.9	1113.41 ± 1.9	1110.02 ± 2	–	–	–
[1], x1 = 0.0996	1109.94 ± 1.8	1106.38 ± 1.9	1102.89 ± 2	–	–	–
[1], x1 = 0.1997	1095.15 ± 1.8	1091.4 ± 1.9	1087.69 ± 1.9	–	–	–
[1], x1 = 0.3	1079.09 ± 1.8	1075.16 ± 1.8	1071.19 ± 1.9	–	–	–
[1], x1 = 0.4012	1061.43 ± 1.7	1057.31 ± 1.8	1053.07 ± 1.9	–	–	–
[1], x1 = 0.5	1042.6 ± 1.7	1038.25 ± 1.8	1033.77 ± 1.8	–	–	–
[1], x1 = 0.6	1021.64 ± 1.6	1017.06 ± 1.7	1012.39 ± 1.8	–	–	–
[1], x1 = 0.7	998.51 ± 1.6	993.75 ± 1.6	988.93 ± 1.7	–	–	–
[1], x1 = 0.8	973.03 ± 1.5	968.09 ± 1.6	963.16 ± 1.6	–	–	–
[1], x1 = 0.9	944.82 ± 1.5	939.77 ± 1.5	934.7 ± 1.6	–	–	–
[1], x1 = 0.95	929.54 ± 1.4	924.43 ± 1.5	919.34 ± 1.6	–	–	–
[1], x1 = 1	913.31 ± 1.4	908.19 ± 1.5	903.11 ± 1.5	–	–	–
[2], x1 = 0.05	–	–	–	20.13 ± 0.04	19.58 ± 0.04	19.01 ± 0.04
[2], x1 = 0.1	–	–	–	19.82 ± 0.04	19.26 ± 0.04	18.68 ± 0.04
[2], x1 = 0.2	–	–	–	19.18 ± 0.04	18.62 ± 0.04	18.05 ± 0.04
[2], x1 = 0.3002	–	–	–	18.49 ± 0.04	17.95 ± 0.04	17.39 ± 0.04
[2], x1 = 0.4001	–	–	–	17.73 ± 0.04	17.21 ± 0.04	16.69 ± 0.04
[2], x1 = 0.5003	–	–	–	16.88 ± 0.04	16.4 ± 0.04	15.91 ± 0.04
[2], x1 = 0.6	–	–	–	15.95 ± 0.04	15.53 ± 0.04	15.07 ± 0.04
[2], x1 = 0.7002	–	–	–	14.99 ± 0.04	14.61 ± 0.04	14.18 ± 0.04
[2], x1 = 0.7999	–	–	–	14.01 ± 0.04	13.64 ± 0.04	13.24 ± 0.04
[2], x1 = 0.9	–	–	–	12.96 ± 0.04	12.62 ± 0.04	12.26 ± 0.04
[2], x1 = 0.9501	–	–	–	12.38 ± 0.04	12.07 ± 0.04	11.73 ± 0.04
[2], x1 = 1	–	–	–	11.76 ± 0.04	11.5 ± 0.04	11.19 ± 0.04

CCCOCCO [2-propoxyethanol]
Settings	mass density, 293.15 K [kg/m3]	mass density, 298.15 K [kg/m3]	mass density, 303.15 K [kg/m3]	relative permittivity at zero frequency, 293.15 K	relative permittivity at zero frequency, 298.15 K	relative permittivity at zero frequency, 303.15 K
[3]	913.31 ± 1.4	908.19 ± 1.5	903.11 ± 1.5	–	–	–
[4]	–	–	–	11.76 ± 0.04	11.5 ± 0.04	11.19 ± 0.04

CCCOCCO [2-propoxyethanol] + OCCOCCOCCO
Settings	mass density, 293.15 K [kg/m3]	mass density, 298.15 K [kg/m3]	mass density, 303.15 K [kg/m3]	relative permittivity at zero frequency, 293.15 K	relative permittivity at zero frequency, 298.15 K	relative permittivity at zero frequency, 303.15 K
[1], x1 = 0.0413	1116.67 ± 1.9	1112.44 ± 1.9	1108.49 ± 2	–	–	–
[1], x1 = 0.1061	1105.37 ± 1.8	1100.97 ± 1.9	1096.78 ± 1.9	–	–	–
[1], x1 = 0.1986	1088.75 ± 1.8	1084.08 ± 1.9	1079.65 ± 1.9	–	–	–
[1], x1 = 0.2999	1069.72 ± 1.8	1064.9 ± 1.8	1060.23 ± 1.9	–	–	–
[1], x1 = 0.3999	1050.01 ± 1.7	1045.15 ± 1.8	1040.34 ± 1.8	–	–	–
[1], x1 = 0.5	1029.46 ± 1.7	1024.57 ± 1.7	1019.67 ± 1.8	–	–	–
[1], x1 = 0.6	1008.1 ± 1.6	1003.16 ± 1.7	998.18 ± 1.7	–	–	–
[1], x1 = 0.7002	985.9 ± 1.6	980.84 ± 1.6	975.77 ± 1.7	–	–	–
[1], x1 = 0.8	962.85 ± 1.5	957.69 ± 1.6	952.55 ± 1.6	–	–	–
[1], x1 = 0.9	938.69 ± 1.5	933.46 ± 1.5	928.29 ± 1.6	–	–	–
[1], x1 = 0.95	926.18 ± 1.4	920.99 ± 1.5	915.81 ± 1.6	–	–	–
[1], x1 = 1	913.31 ± 1.4	908.19 ± 1.5	903.11 ± 1.5	–	–	–
[2], x1 = 0.0501	–	–	–	23.33 ± 0.04	22.71 ± 0.04	22.07 ± 0.04
[2], x1 = 0.1003	–	–	–	22.93 ± 0.04	22.33 ± 0.04	21.68 ± 0.04
[2], x1 = 0.2005	–	–	–	22.09 ± 0.04	21.51 ± 0.04	20.89 ± 0.04
[2], x1 = 0.2999	–	–	–	21.25 ± 0.04	20.64 ± 0.04	20.02 ± 0.04
[2], x1 = 0.4001	–	–	–	20.35 ± 0.04	19.66 ± 0.04	19.06 ± 0.04
[2], x1 = 0.5	–	–	–	19.33 ± 0.04	18.59 ± 0.04	18.02 ± 0.04
[2], x1 = 0.6002	–	–	–	18.11 ± 0.04	17.41 ± 0.04	16.88 ± 0.04
[2], x1 = 0.7002	–	–	–	16.71 ± 0.04	16.13 ± 0.04	15.63 ± 0.04
[2], x1 = 0.8	–	–	–	15.16 ± 0.04	14.73 ± 0.04	14.28 ± 0.04
[2], x1 = 0.9	–	–	–	13.53 ± 0.04	13.18 ± 0.04	12.78 ± 0.04
[2], x1 = 0.95	–	–	–	12.69 ± 0.04	12.36 ± 0.04	11.99 ± 0.04
[2], x1 = 1	–	–	–	11.76 ± 0.04	11.5 ± 0.04	11.19 ± 0.04
